SMILES: N#Cc1cnc(NC(=O)CCC(=O)O)cn1 [Compound A1, 4-[(5-cyanopyrazin-2-yl)amino]-4-oxo-butanoic acid]
- melting point: 201 to 202 °C
